{
  "source": "patent US9616128B2",
  "about": "“Pharmaceutical compositions comprising paracetamol and process for preparing the same” (Troikaa Pharmaceuticals Ltd, priority 2010, dated 2017)",
  "key": {"[1]": {"assay": "Viscosity of paracetamol injectable solutions", "format": "physicochemical", "details": "solution in glycofurol at concentration of 205 mg/ml", "protocol": "The solitary prior art in which the solution of paracetamol ranging from 60 mg/ml (6% w/v) to 150 mg/ml (15% w/v) have been prepared in glycofurol:ethanol:water (about 44:10:46 or about 4:1:4) and glycofurol: water (48:52 or about 1:1). […] 5 CPS and 14.8 CPS respectively. It is to be noted that the concentrations of the solutions reported in the said prior art is between 60 mg/ml to 150 mg/ml."}, "physchem": {"assay": "physchem", "details": "solubility of paracetamol", "protocol": "The solubility of paracetamol in various solvents, such as glycofurol, PEG, ethanol, and propylene glycol were determined by us. […] The challenge lies in tailoring the appropriate solvent system to provide injectables containing paracetamol in 166 mg/ml to 250 mg/ml so that the therapeutic dose of paracetamol (500 mg) can be delivered in 2 to 3 ml without compromising in viscosity of these injectables."}},
  "data": [
    {"compound": "CC(=O)Nc1ccc(O)cc1", "note": "[paracetamol, p-acetylaminophenol]", "values": [
      {"measurement": "viscosity of the paracetamol solution", "setting": "[1]", "result": "about 57 CPS"},
      {"measurement": "solubility", "setting": "physchem; organic solvent or mixture", "result": "~205", "unit": "mg/mL"},
      {"measurement": "solubility", "setting": "physchem; water", "result": "~14", "unit": "mg/mL"}
    ]}
  ]
}
